We go through 7 compounds from publication PMC8621570, “Mechanistic Studies of Antibiotic Adjuvants Reducing Kidney’s Bacterial Loads upon Systemic Monotherapy” (Pharmaceutics, 2021).

In one series the test system is E. coli 25922. Format: cell-based, Escherichia coli. The note with it: 25922, 24 h. The procedure: Sensitization to plasma components was assessed by mixing bacteria with serial two-fold OAC dilutions in 80% human plasma (Israel Blood Bank) or plasma from the specified species (Technion preclinical research authority or VetSource), as described. Data were obtained from three independent experiments.
Figure 3 Animal plasma antibacterial activities against E. coli 25922. (a) Dose-dependent reduction of colony forming units (CFU) as determined 24 h after exposure to C14(ω5)OOc10O in human plasma (80% final plasma concentration in PBS). Values represent the mean ± SD obtained from three individual plasma donors (mean inoculum was 1.6 ± 0.8 × 10^6 CFU/mL). (b) Time-kill kinetics determined upon E. coli exposure to 0, 2.5, 5, and 10 µM C14(ω5)OOc10O (from top to bottom, respectively). Values represent the mean ± SD obtained from two individual plasma samples, each subjected to two independent assays. Panels (c–f), respectively, show the OAC’s concentration-dependent activities in plasma samples obtained from pig, cat, sheep, and dog. The three dashed horizontal lines respectively represent the average CFU count of the vehicle control (upper line), the inoculum (middle line), and the limit of detection (lower line), i.e., log10 50 CFU/mL = 1.69. Green stars (*) denote lack of detectable CFU.

The nature of series [1]: Peptide self-assembly (critical aggregation concentration) by static light scattering. The following applies: light scattering in PBS. Format: physicochemical. Here is the method:
(§1) Peptide self-assembly was determined by static light scattering measurements as described. Hemolysis was determined by measuring hemoglobin leakage from washed human RBCs, as described. Minimal inhibitory concentration (MIC) was determined using the microdilution assay, as described. Bactericidal kinetics were determined by mixing bacteria with rifampin, OAC, or their combinations, as described. Data were obtained from three independent assays performed in duplicate.

Series [2] has as its system washed human erythrocytes. In kind it is cell-based. The note with it: red cells of human, 3 h. The procedure:
as §1

A further series has as its system 12 GNB strains. Format: cell-based. The note with it: OD measurements, mean of 12 GNB strains. The procedure:
(§2) Bacteria:Escherichia coli strains: 25922 and 35218 (ATCC, Manassas, VA, USA), 14182 (clinical isolate), Ag100 and Ag100A [34] (ΔacrAB) are two K-12 isogenic mutantsand the engineered mutant ML-35p. Additional ESKAPE species tested: Klebsiella pneumoniae strains 1287 and 224 (clinical isolates), Acinetobacter baumannii ATCC strain 19606, Pseudomonas aeruginosa ATCC strains 9027 and 27853. Bacteria were grown in Luria–Bertani (LB) broth (0.5% NaCl, 0.5% yeast extract, 1% tryptone, pH = 7), except for E. coli ML-35p that was grown in tryptic-soy broth.
as §1

A short description of series [3]: Hydrophobicity by reversed phase HPLC elution. Format: physicochemical. The following applies: % acetonitrile required for elution in reversed phase HPLC, C18 column; rounded to nearest whole number.
The test system of series [4] is E. coli ΔacrAB mutant AG100A. Kind of series: microbe, parasite or virus in culture. Format: cell-based, Escherichia coli. Here is the method:
as §2, §1
(§3) The wild-type E. coli strain AG100 and its isogenic ΔacrAB mutant AG100A were used to determine the MIC of OACs and of two known acrAB-TolC substrates: the AMP LL-37 and the macrolide antibiotic erythromycin that are normally inefficient against GNB.

The test system of another series is E. coli strain AG100. Kind of series: microbe, parasite or virus in culture. Format: cell-based, Escherichia coli. Here is the method:
as §2, §1, §3

Series [5] relates to extremely resistant GNB strains. Kind of series: Erythromycin MIC in LB medium against GNB. The note with it: greater than highest tested concentration, read-out: Erythromycin MIC alone. In kind it is cell-based. Here is the method:
(§4) Bacterial sensitization: Sensitization to antibiotics was determined using the checkerboard method in presence of sub-MIC OAC (2.5, 5, and 10 μM), as described. The synergistic effect of the combinations was expressed in terms of the Sensitization Factor (SF), where SF = (MIC antibiotic alone)/(MIC antibiotic upon combination). Data were obtained from three independent assays performed in duplicate.
(§5) Figure 4 Hydrophobicity dependence of antibiotics potentiation by lipopeptide analogs. Sensitization of GNB to rifampin and erythromycin (upper and lower panel, respectively) was assessed by MIC experiments performed in LB medium, in presence or absence of an OAC analog whose A2 position was gradually shortened (from c10 to c6). Pseudomonas aeruginosa 27853 (Pa, blue), Klebsiella pneumoniae 1287 (Kp, green), Escherichia coli 25922 (Ec, red), and Acinetobacter baumannii 19606 (Ab, black).

A further series concerns P. aeruginosa 27853. Kind of series: Excisional skin wound infection model, topical treatment. In kind it is in vivo, mouse. The note with it: hypromellose gel 1% (w/v), 4 h treatment, mice n = 3 per group. The procedure:
Animals: All animal studies were performed using male ICR mice (25 ± 2 gr). The Technion Animal Care and Use committee approved all procedures, care, and handling of animals. Ethics approval codes: IL0800519, IL0640421, IL0550618, IL1811217.
For efficacy assessments, three infection models were used including one with topical treatment and two with systemic treatment. • Excisional skin wound infection model: mice were anesthetized by intraperitoneal administration of a mixture of ketamine 100 mg/kg and xylazine 5 mg/kg in PBS and their backs shaved with electric clippers. The following day mice were similarly anesthetized and were administrated (S.C) 0.05 mg/kg buprenorphine (for pain relief). A 5 mm diameter piece of skin was removed from the middle of the shaved back, with sterile biopsy punch resulting in a full-thickness injury. A total of 20 µL of a mid-logarithmic culture, containing 5 × 10^6 CFU P. aeruginosa 27853 were applied on the wound. Then, 15 min after inoculation, about 50 µL of hypromellose gel (prepared as described) containing OAC, antibiotic, or their combination were applied on the skin and covered with a piece of medical tape. As a control, the vehicle (drug-free gel) was similarly applied on the skin. After a treatment period of 4 h, about 8 mm diameter of skin surrounding the infected area was removed, suspended in PBS, homogenized, serially diluted 10-fold, and plated for CFU enumeration. The number of viable bacteria was determined after overnight incubation at 37 °C. The lower limit of detection was 50 CFU/wound. • Thigh infection model (TI): mice were inoculated intramuscularly with 1 × 10^6 CFU/mouse of mid-logarithmic E. coli 25922 and treated subcutaneously 1 and 3 h after inoculation. Mice were sacrificed 24 h after infection, their thighs excised, homogenized, serially diluted 10-fold, and plated for CFU enumeration. The number of viable bacteria was determined after overnight incubation at 37 °C. […] The number of viable bacteria was determined after overnight incubation at 37 °C. […]

The test system of series [6] is Acinetobacter baumannii 19606. Kind of series: Sensitization to rifampin, checkerboard method. Format: cell-based. The note with it: Acinetobacter baumannii, 19606, A. baumannii, LB. The procedure:
as §4, §5

The subject of a further series is Klebsiella pneumoniae. Kind of series: Sensitization to rifampin, checkerboard method. The note with it: Klebsiella pneumoniae, K. pneumoniae, LB. In kind it is cell-based. The procedure:
as §4, §5

Series [7] concerns Pseudomonas aeruginosa 27853. Kind of series: Sensitization to rifampin, checkerboard method. The following applies: Pseudomonas aeruginosa, 27853, P. aeruginosa, LB. Format: cell-based. The procedure:
as §4, §5

The next series has as its system Escherichia coli 25922. Kind of series: Sensitization to rifampin, checkerboard method. Format: cell-based. The note with it: Escherichia coli, 25922, E. coli, LB. Here is the method: as §4, §5
Where [8] appears, read: no adjuvant, read-out: Rifampin MIC alone.
[9] abbreviates: with C14(ω5)OOc10O, read-out: Rifampin MIC in presence of adjuvant.
Setting [10] is: with 10 μM C14(ω5)OOc10O, read-out: Rifampin MIC in presence of adjuvant.

Values after ≈ are worked out from the molar mass of the structure shown. Like-named read-outs stand apart in the source and are kept apart here. Where a SMILES comes first, the peptide text is derived from it. [ ]: non-standard residue; d: D form. The star is where a group is joined. Myristoyl = CCCCCCCCCCCCCC(=O)*; 12Ado = NCCCCCCCCCCCC(=O)O; Orn = NCCC[C@H](N)C(=O)O

With `CCCCC=CCCCCCCCC(=O)N[C@@H](CCCN)C(=O)N[C@@H](CCCN)C(=O)NCCCCCC(=O)N[C@@H](CCCN)C(N)=O` [C14(ω5)OOc6O], in the series on E. coli 25922, the “MIC, human plasma” value is 5 µM (≈ 3.4 µg/mL). Moreover, the “CAC, critical aggregation concentration” value in series [1] is greater than 100 µM. For the same compound, the “HC50, concentration causing 50% hemolysis compared to water” value in series [2] is greater than 100 µM. Moreover, in the series on 12 GNB strains, the “MIC, LB medium” value is on record as greater than 50 µM. Further, the “H, hydrophobicity” value in series [3] stood at 47%.

Consider `CCCCC=CCCCCCCCC(=O)N[C@@H](CCCN)C(=O)N[C@@H](CCCN)C(=O)NCCCCCCCC(=O)N[C@@H](CCCN)C(N)=O` [C14(ω5)OOc8O], for which the “MIC, human plasma” value against E. coli 25922 was 2.5 to 5 µM. The “CAC, critical aggregation concentration” value in series [1] is listed as greater than 100 µM. Also, the “HC50, concentration causing 50% hemolysis compared to water” value in [2] is listed as greater than 100 µM. Also, the “MIC, LB medium” value with 12 GNB strains is recorded as greater than 50 µM. Besides, in series [3], the “H, hydrophobicity” value is recorded as 48%.

For `CCCCCCCCCCCCCC(=O)N[C@@H](CCCN)C(=O)N[C@@H](CCCN)C(=O)NCCCCCCCCCC(=O)N[C@@H](CCCN)C(N)=O` [C14OOc10O], in the series with E. coli 25922, the “MIC, human plasma” value is 10 to 20 µM. Moreover, the “CAC, critical aggregation concentration” value in series [1] was 45 ± 14 µM. In addition, the “HC50, concentration causing 50% hemolysis compared to water” value in series [2] was 28 ± 2 µM. The “MIC, LB medium” value in the series with 12 GNB strains lay within 12.5 to 25 µM. Further, the “H, hydrophobicity” value in [3] was found to be 53%.

In the case of `CCCCCCCCCCCCCC(=O)N[C@@H](CCCN)C(=O)N[C@@H](CCCN)C(=O)NCCCCCCCCCCCC(=O)N[C@@H](CCCN)C(N)=O` [C14OOc12O] (Myristoyl-[Orn][Orn][12Ado][Orn]-NH2), in the series with E. coli 25922, the “MIC, human plasma” value is listed as greater than 20 µM. Further, the “CAC, critical aggregation concentration” value in series [1] was found to be 15 ± 1 µM. The “HC50, concentration causing 50% hemolysis compared to water” value in series [2] was 14 ± 4 µM. In addition, the “MIC, LB medium” value in the series with 12 GNB strains is 3 to 6 µM. Further, the “MIC, Ag100A” value in series [4] (isogenic ΔacrAB mutant AG100A) stood at 3.1 µM. In the series on E. coli strain AG100 (strain AG100), the MIC is listed as 3.1 µM. In addition, the “H, hydrophobicity” value in [3] is on record as 55%.

As for `CC[C@H]1OC(=O)[C@H](C)[C@@H](O[C@H]2C[C@@](C)(OC)[C@@H](O)[C@H](C)O2)[C@H](C)[C@@H](O[C@@H]2O[C@H](C)C[C@H](N(C)C)[C@H]2O)[C@](C)(O)C[C@@H](C)C(=O)[C@H](C)[C@@H](O)[C@]1(C)O` [Erythromycin, reference compound], the MIC was greater than 512 µg/mL in series [5]; 10.9 µM in [4] (Escherichia coli, read-out: MIC, Ag100A); 174 µM with E. coli strain AG100 (Escherichia coli, wild-type E. coli AG100).

As for `NCCC[C@H](NC(=O)CCCCCCCCCCCNC(=O)[C@H](CCCN)NC(=O)[C@@H](N)CCCN)C(N)=O` [OOc12O] (H-[Orn][Orn][12Ado][Orn]-NH2), the “MIC, human plasma” value in the series with E. coli 25922 is recorded as greater than 20 µM. In [1], the “CAC, critical aggregation concentration” value is on record as greater than 100 µM. In addition, in [2], the “HC50, concentration causing 50% hemolysis compared to water” value was greater than 100 µM. In addition, in the series with 12 GNB strains, the “MIC, LB medium” value was greater than 50 µM. Besides, the “H, hydrophobicity” value in [3] is reported as 24%.

Take `CO[C@H]1/C=C/O[C@@]2(C)Oc3c(C)c(O)c4c(O)c(c(/C=N/N5CCN(C)CC5)c(O)c4c3C2=O)NC(=O)/C(C)=C\C=C\[C@H](C)[C@H](O)[C@@H](C)[C@@H](O)[C@@H](C)[C@H](OC(C)=O)[C@@H]1C` [rifampin]: the “Reduction of CFU count” value with P. aeruginosa 27853 was found to be 1.7 log10 units. The MIC stood at 2 µg/mL in [6] (setting [8]); 0.0005 µg/mL in series [6] (setting [9]); 32 µg/mL in the series on Klebsiella pneumoniae (setting [8]); 0.0005 µg/mL with Klebsiella pneumoniae (setting [9]); 32 µg/mL in series [7] (setting [8]); 0.001 µg/mL in series [7] (setting [10]). For the same compound, the MIC with Escherichia coli 25922 (setting [8]) is 8 µg/mL; in the series with Escherichia coli 25922 (setting [10]), 0.00025 µg/mL.
